Laboratory results: patent US9290485B2, “N-((6-amino-pyridin-3-yl)methyl)-heteroaryl-carboxamides” (NOVARTIS AG, priority 2010, dated 2016)

Target: human plasma kallikrein (Homo sapiens (Human), UniProt P03952)
Conditions: human plasma kallikrein 25 pM, substrate 0.5 uM, 1 hour pre-incubation at room temperature, read at t=60 min
Procedure: All other chemicals were of analytical grade.
A stock solution of 0.17 mg/ml deinonized water was stored at −80° C. Enzymatic reactions were conducted in ‘assay buffer’, comprising 50 mM Hepes/NaOH at pH 7.8, 150 mM NaCl, 1 mM EDTA and 0.05% (w/v) CHAPS.
Both, enzyme and substrate were diluted in assay buffer.
All protein and peptide containing solutions were handled in siliconized tubes (Life Systems Design, Merenschwand, Switzerland). […] Plate measurements were conducted by the means of a Safire2 reader (TECAN, Maennedorf, Switzerland). The Safire2 is a monochomator-based instrument and wavelengths of 485 nm and 535 nm were taken for fluorescence excitation and emission acquisition, respectively. The bandwidths were set to 10 nm in both the excitation and the emission path. The fluorescence in each well was excited by three flashes per measurement.
The test compound was dissolved in 90% (v/v) DMSO/water. For the assays, 250 nL of the 90% (v/v) DMSO/water solution or compound solution were added per well, followed by the addition of 12.5 μl protease solution (protease in assay buffer). […] After 1 hour of pre-incubation at room temperature, the reactions were started by the addition of 12.5 μl substrate solution (in assay buffer, final assay concentration was 0.5 uM). After the addition of the substrate solution, the final DMSO concentration in the assay was 0.9% (v/v). […] The IC50 value was calculated from the plot of percentage of inhibition vs. inhibitor concentration by a logistics fit according to the following equation: y=A2+(A1−A2)/(1+(x/IC50)^p) where y is the %-inhibition at the inhibitor concentration, x. A1 is the lowest inhibition value, i.e. 0%, and A2 the maximum inhibition value, i.e. 100%. The exponent, p, is the Hill coefficient. The curve fitting was conducted with the non-linear regression routine of the analysis software Origin 7.55R6 (OriginLab Corporation).

Chain of human plasma kallikrein (P03952 whole entry, looked up): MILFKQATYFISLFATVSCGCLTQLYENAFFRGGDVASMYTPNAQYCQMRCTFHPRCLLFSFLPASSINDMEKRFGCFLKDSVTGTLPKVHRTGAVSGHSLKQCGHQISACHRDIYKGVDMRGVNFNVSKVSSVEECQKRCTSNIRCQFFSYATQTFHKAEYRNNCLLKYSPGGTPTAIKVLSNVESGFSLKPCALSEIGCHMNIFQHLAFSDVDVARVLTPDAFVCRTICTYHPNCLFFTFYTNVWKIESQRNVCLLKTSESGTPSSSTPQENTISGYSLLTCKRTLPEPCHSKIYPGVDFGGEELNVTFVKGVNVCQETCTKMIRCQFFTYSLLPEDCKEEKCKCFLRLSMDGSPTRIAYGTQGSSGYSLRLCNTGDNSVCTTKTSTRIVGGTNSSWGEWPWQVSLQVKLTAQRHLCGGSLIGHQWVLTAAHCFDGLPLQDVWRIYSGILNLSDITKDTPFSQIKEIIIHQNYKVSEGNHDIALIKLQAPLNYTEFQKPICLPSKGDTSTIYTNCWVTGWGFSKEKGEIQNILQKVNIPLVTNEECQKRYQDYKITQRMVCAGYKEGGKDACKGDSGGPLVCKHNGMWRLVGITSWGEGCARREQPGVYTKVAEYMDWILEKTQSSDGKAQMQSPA
Chain of human plasma kallikrein (P03952 whole entry partner, looked up): as the sequence (P03952 whole entry, looked up) above

| Compound | IC50 |
| --- | --- |
| Cc1cc(N)nc(C)c1CNC(=O)c1cc(C)n(Cc2ccccc2)c1C [Example 109, N-((6-amino-2,4-dimethylpyridin-3-yl)methyl)-1-benzyl-2,5-dimethyl-1H-pyrrole-3-carboxamide] | 1300 nM |
| Cc1cc(N)nc(C)c1CNC(=O)c1cnn(Cc2ccc(CN3CCOCC3)cc2)c1 [Example 110, N-((6-amino-2,4-dimethylpyridin-3-yl)methyl)-1-(4-(morpholinomethyl)benzyl)-1H-pyrazole-4-carboxamide] | 249 nM |
| Cc1cc(N)nc(C)c1CNC(=O)c1cnn(Cc2ccc(C(=O)NC3CCS(=O)(=O)C3)cc2)c1 (centres unmarked) [Example 111, 1-[4-(1,1-Dioxo-tetrahydro-1lambda*6*-thiophen-3-ylcarbamoyl)-benzyl]-1H-pyrazole-4-carboxylic acid (6-amino-2,4-dimethyl-pyridin-3-ylmethyl)-amide] | 2100 nM |
| Cc1cc(N)nc(C)c1CNC(=O)c1cnn(Cc2ccc(NC(=O)NC3CC3)cc2)c1 [Example 112, N-((6-amino-2,4-dimethylpyridin-3-yl)methyl)-1-(4-(3-cyclopropylureido)benzyl)-1H-pyrazole-4-carboxamide] | 229 nM |
| Cc1cc(N)nc(C)c1CNC(=O)c1n[nH]c(Cc2ccccc2)n1 [Example 113, N-((6-amino-2,4-dimethylpyridin-3-yl)methyl)-5-benzyl-1H-1,2,4-triazole-3-carboxamide] | 5800 nM |
| Cc1cc(N)nc(C)c1CNC(=O)c1cnn(Cc2ccc(-c3ccncc3)cc2)c1 [Example 114, N-((6-amino-2,4-dimethylpyridin-3-yl)methyl)-1-(4-(pyridin-4-yl)benzyl)-1H-pyrazole-4-carboxamide] | 30 nM |
| Cc1cc(N)nc(C)c1CNC(=O)c1cnn(Cc2cccc(-c3ccccc3)c2)c1 [Example 115, N-((6-amino-2,4-dimethylpyridin-3-yl)methyl)-1-(biphenyl-3-ylmethyl)-1H-pyrazole-4-carboxamide] | 3.3 nM |
| Cc1cc(N)nc(C)c1CNC(=O)c1cnn(Cc2cccc(S(=O)(=O)N3CCOCC3)c2)c1 [Example 116, N-((6-amino-2,4-dimethylpyridin-3-yl)methyl)-1-(3-(morpholinosulfonyl)benzyl)-1H-pyrazole-4-carboxamide] | 197 nM |
| Cc1cc(N)nc(C)c1CNC(=O)c1cnn(Cc2cccc(C(=O)Nc3ccccc3)c2)c1 [Example 117, N-((6-amino-2,4-dimethylpyridin-3-yl)methyl)-1-(3-(phenylcarbamoyl)benzyl)-1H-pyrazole-4-carboxamide] | 152 nM |
| Cc1cc(N)nc(C)c1CNC(=O)c1cnn(Cc2ccc(CN3CCCC3)cc2)c1 [Example 118, N-((6-amino-2,4-dimethylpyridin-3-yl)methyl)-1-(4-(pyrrolidin-1-ylmethyl)benzyl)-1H-pyrazole-4-carboxamide] | 183 nM |
| Cc1cc(N)nc(C)c1CNC(=O)c1cnn(Cc2cccc(C(=O)N3CCCCC3)c2)c1 [Example 119, N-((6-amino-2,4-dimethylpyridin-3-yl)methyl)-1-(3-(piperidine-1-carbonyl)benzyl)-1H-pyrazole-4-carboxamide] | 289 nM |
| Cc1cc(N)nc(C)c1CNC(=O)c1cnn(Cc2ccc(C(=O)N3CCOCC3)cc2)c1 [Example 121, N-((6-amino-2,4-dimethylpyridin-3-yl)methyl)-1-(4-(morpholine-4-carbonyl)benzyl)-1H-pyrazole-4-carboxamide] | 369 nM |
| Cc1cc(N)nc(C)c1CNC(=O)c1cnn(Cc2ccc(C(=O)Nc3ccn(C)n3)cc2)c1 [Example 122, N-((6-amino-2,4-dimethylpyridin-3-yl)methyl)-1-(4-(1-methyl-1H-pyrazol-3-ylcarbamoyl)benzyl)-1H-pyrazole-4-carboxamide] | 752 nM |
| Cc1cc(N)nc(C)c1CNC(=O)c1n[nH]c([C@@H](N)c2ccccc2)n1 [Example 123, (S)-5-(amino(phenyl)methyl)-N-((6-amino-2,4-dimethylpyridin-3-yl)methyl)-1H-1,2,4-triazole-3-carboxamide] | 15800 nM |
| Cc1cc(N)nc(C)c1CNC(=O)c1nc(Cc2ccc(-c3ccccc3)cc2)n[nH]1 [Example 124, N-((6-amino-2,4-dimethylpyridin-3-yl)methyl)-3-(biphenyl-4-ylmethyl)-1H-1,2,4-triazole-5-carboxamide] | 71 nM |
| Cc1cc(N)nc(C)c1CNC(=O)c1nc(Cc2ccc(Oc3ccccc3)cc2)n[nH]1 [Example 125, N-((6-amino-2,4-dimethylpyridin-3-yl)methyl)-3-(4-phenoxybenzyl)-1H-1,2,4-triazole-5-carboxamide] | 36 nM |
| Cc1cc(N)nc(C)c1CNC(=O)c1cnn(Cc2ccc(S(=O)(=O)N(C)C)cc2)c1 [Example 126, N-((6-amino-2,4-dimethylpyridin-3-yl)methyl)-1-(4-(N,N-dimethylsulfamoyl)benzyl)-1H-pyrazole-4-carboxamide] | 670 nM |
| Cc1cc(N)nc(C)c1CNC(=O)c1ccn(S(=O)(=O)c2ccc(-c3ccccc3)cc2)c1 [Example 127, N-((6-amino-2,4-dimethylpyridin-3-yl)methyl)-1-(biphenyl-4-ylsulfonyl)-1H-pyrrole-3-carboxamide] | 16 nM |

| Compound | IC50 |
| --- | --- |
| Cc1cc(N)nc(C)c1CNC(=O)c1ccn(S(=O)(=O)c2ccc(Cl)s2)c1 [Example 128, N-((6-amino-2,4-dimethylpyridin-3-yl)methyl)-1-(5-chlorothiophen-2-ylsulfonyl)-1H-pyrrole-3-carboxamide] | 301 nM |
| COc1cccc(S(=O)(=O)n2ccc(C(=O)NCc3c(C)cc(N)nc3C)c2)c1 [Example 129, N-((6-amino-2,4-dimethylpyridin-3-yl)methyl)-1-(3-methoxyphenylsulfonyl)-1H-pyrrole-3-carboxamide] | 244 nM |
| Cc1cc(N)nc(C)c1CNC(=O)c1ccn(S(=O)(=O)c2ccc3c(c2)N(C)CCO3)c1 [Example 130, N-((6-amino-2,4-dimethylpyridin-3-yl)methyl)-1-(4-methyl-3,4-dihydro-2H-benzo[b][1,4]oxazin-6-ylsulfonyl)-1H-pyrrole-3-carboxamide] | 67 nM |
| Cc1cc(N)nc(C)c1CNC(=O)c1ccn(S(=O)(=O)c2ccc3c(ccn3C)c2)c1 [Example 131, N-((6-amino-2,4-dimethylpyridin-3-yl)methyl)-1-(1-methyl-1H-indol-5-ylsulfonyl)-1H-pyrrole-3-carboxamide] | 9 nM |
| Cc1cc(N)nc(C)c1CNC(=O)c1ccn(S(=O)(=O)c2cccc(-c3ncccn3)c2)c1 [Example 132, N-((6-amino-2,4-dimethylpyridin-3-yl)methyl)-1-(3-(pyrimidin-2-yl)phenylsulfonyl)-1H-pyrrole-3-carboxamide] | 71 nM |
| Cc1cc(C)n(-c2ccc(S(=O)(=O)n3ccc(C(=O)NCc4c(C)cc(N)nc4C)c3)cc2)n1 [Example 133, N-((6-amino-2,4-dimethylpyridin-3-yl)methyl)-1-(4-(3,5-dimethyl-1H-pyrazol-1-yl)phenylsulfonyl)-1H-pyrrole-3-carboxamide] | 196 nM |
| Cc1cc(N)nc(C)c1CNC(=O)c1cnn(Cc2ccc(OCC(=O)O)cc2)c1 [Example 134, 2-(4-((4-((6-amino-2,4-dimethylpyridin-3-yl)methylcarbamoyl)-1H-pyrazol-1-yl)methyl)phenoxy)acetic acid] | 1100 nM |
| Cc1cc(N)nc(C)c1CNC(=O)c1cnn(Cc2ccc(OCC#N)cc2)c1 [Example 135, N-((6-amino-2,4-dimethylpyridin-3-yl)methyl)-1-(4-(cyanomethoxy)benzyl)-1H-pyrazole-4-carboxamide] | 89 nM |
| Cc1nc(N)cc(OCc2ncco2)c1CNC(=O)c1cn(Cc2ccccc2)nn1 [Example 137, N-((6-amino-2-methyl-4-(oxazol-2-ylmethoxy)pyridin-3-yl)methyl)-1-benzyl-1H-1,2,3-triazole-4-carboxamide] | 127 nM |
| Cc1cc(N)ncc1CNC(=O)c1cnn(Cc2ccccc2)c1 [Example 138, N-((6-amino-4-methylpyridin-3-yl)methyl)-1-benzyl-1H-pyrazole-4-carboxamide] | 62700 nM |
| Cc1cc(N)nc(C)c1CNC(=O)c1cnn(Cc2ccc(Cn3ccc(=O)[nH]3)cc2)c1 [Example 139, N-((6-amino-2,4-dimethylpyridin-3-yl)methyl)-1-(4-((3-oxo-2,3-dihydro-1H-pyrazol-1-yl)methyl)benzyl)-1H-pyrazole-4-carboxamide] | 4.9 nM |
| Cc1cc(N)nc(C)c1CNC(=O)c1cnn(Cc2ccc(Cn3ccnn3)cc2)c1 [Example 140, 1-(4-((1H-1,2,3-triazol-1-yl)methyl)benzyl)-N-((6-amino-2,4-dimethylpyridin-3-yl)methyl)-1H-pyrazole-4-carboxamide] | 4.6 nM |
| Cc1cc(N)nc(C)c1CNC(=O)c1cnn(Cc2ccc(Cn3c(C)cc(=O)n3C)cc2)c1 [Example 141, N-((6-amino-2,4-dimethylpyridin-3-yl)methyl)-1-(4-((2,5-dimethyl-3-oxo-2,3-dihydro-1H-pyrazol-1-yl)methyl)benzyl)-1H-pyrazole-4-carboxamide] | 1.2 nM |
| Cc1cc(N)nc(C)c1CNC(=O)c1cnn(Cc2ccc(Cn3ccccc3=O)cc2)c1 [Example 142, N-((6-amino-2,4-dimethylpyridin-3-yl)methyl)-1-(4-((2-oxopyridin-1(2H)-yl)methyl)benzyl)-1H-pyrazole-4-carboxamide] | 0.0224 nM |
| Cc1cc(N)nc(C)c1CNC(=O)c1cnn(Cc2ccc(CN3CCCC3=O)cc2)c1 [Example 143, N-((6-amino-2,4-dimethylpyridin-3-yl)methyl)-1-(4-((2-oxopyrrolidin-1-yl)methyl)benzyl)-1H-pyrazole-4-carboxamide] | 2.6 nM |
| Cc1nc(N)cc(Cl)c1CNC(=O)c1cnn(Cc2ccccc2)c1 [Example 144, N-((6-amino-4-chloro-2-methylpyridin-3-yl)methyl]-1-benzyl-1H-pyrazole-4-carboxamide] | 42400 nM |
| Cc1cc(N)nc(C)c1CNC(=O)c1cnn(Cc2ccc(Cn3cccn3)cc2)c1 [Example 145, 1-(4-((1H-pyrazol-1-yl)methyl)benzyl)-N-((6-amino-2,4-dimethylpyridin-3-yl)methyl)-1H-pyrazole-4-carboxamide] | 0.2 nM |
